Counter-ions that a name gives are not always drawn.
Assays:
[1] = molecular target: PI3Kα (Homo sapiens, UniProt P42336); assay: Fluorescent determination of PI3Kinase enzyme activity (HTRF), PI3Kα; format: biochemical
Source text: (§1) Fluorescent Determination of PI3Kinase Enzyme Activity
(§2) Phosphoinositide 3 kinases (PI3K) belong to a class of Lipid kinases that play a critical role in the regulation of several key cellular processes. The PI3K are capable of phosphorylating the 3-hydroxy position of phosphoinositols thereby generating second messengers involved in downstream signalling events. The homogenous time resolved fluorescence (HTRF) assay allows detection of 3,4,5-triphosphate (PIP3) formed as a result of phosphorylation of phosphotidylinositol 4,5-biphosphate (PIP2) by PI3K isoforms such as α, […], γ or δ.
(§3) PI3K isoform activity for α, β, γ or δ is to be determined using a PI3K human HTRF™ Assay Kit (Millipore, Billerica, Mass.) with modifications. All incubations were carried out at room temperature. Briefly, 0.5 μl of 40× inhibitor (in 100% DMSO) or 100% DMSO were added to each well of a 384-well black plate (Greiner Bio-One, Monroe, N.C.) containing 14.5 μl 1× reaction buffer/PIP2 (10 mM MgCl2, 5 mM DTT, 1.38 μM PIP2) mix with or without enzyme and incubated for 10 min. After the initial incubation, 5 μl/well of 400 μM ATP was added and incubated for an additional 30 minutes. Reaction was terminated by adding 5 μl/well stop solution (Millipore, Billerica, Mass.). Five microliters of detection mix (Millipore, Billerica, Mass.) were then added to each well and was incubated for 6-18 h in the dark. HRTF ratio was measured on a microplate reader (BMG Labtech, Germany) at an excitation wavelength of 337 nm and emission wavelengths of 665 and 620 nm with an integration time of 400 μsec. Data was analyzed using Graphpad Prism (Graphpad software; San Diego Calif.) for IC50 determination).

[2] = molecular target: PI3Kδ (Homo sapiens, UniProt O00329); assay: Fluorescent determination of PI3Kinase enzyme activity (HTRF), PI3Kδ; format: biochemical; settings: for inhibition at 0.1 µM: 100 nM (underlined values: 300 nM)
Sequence of PI3Kδ (O00329 whole entry): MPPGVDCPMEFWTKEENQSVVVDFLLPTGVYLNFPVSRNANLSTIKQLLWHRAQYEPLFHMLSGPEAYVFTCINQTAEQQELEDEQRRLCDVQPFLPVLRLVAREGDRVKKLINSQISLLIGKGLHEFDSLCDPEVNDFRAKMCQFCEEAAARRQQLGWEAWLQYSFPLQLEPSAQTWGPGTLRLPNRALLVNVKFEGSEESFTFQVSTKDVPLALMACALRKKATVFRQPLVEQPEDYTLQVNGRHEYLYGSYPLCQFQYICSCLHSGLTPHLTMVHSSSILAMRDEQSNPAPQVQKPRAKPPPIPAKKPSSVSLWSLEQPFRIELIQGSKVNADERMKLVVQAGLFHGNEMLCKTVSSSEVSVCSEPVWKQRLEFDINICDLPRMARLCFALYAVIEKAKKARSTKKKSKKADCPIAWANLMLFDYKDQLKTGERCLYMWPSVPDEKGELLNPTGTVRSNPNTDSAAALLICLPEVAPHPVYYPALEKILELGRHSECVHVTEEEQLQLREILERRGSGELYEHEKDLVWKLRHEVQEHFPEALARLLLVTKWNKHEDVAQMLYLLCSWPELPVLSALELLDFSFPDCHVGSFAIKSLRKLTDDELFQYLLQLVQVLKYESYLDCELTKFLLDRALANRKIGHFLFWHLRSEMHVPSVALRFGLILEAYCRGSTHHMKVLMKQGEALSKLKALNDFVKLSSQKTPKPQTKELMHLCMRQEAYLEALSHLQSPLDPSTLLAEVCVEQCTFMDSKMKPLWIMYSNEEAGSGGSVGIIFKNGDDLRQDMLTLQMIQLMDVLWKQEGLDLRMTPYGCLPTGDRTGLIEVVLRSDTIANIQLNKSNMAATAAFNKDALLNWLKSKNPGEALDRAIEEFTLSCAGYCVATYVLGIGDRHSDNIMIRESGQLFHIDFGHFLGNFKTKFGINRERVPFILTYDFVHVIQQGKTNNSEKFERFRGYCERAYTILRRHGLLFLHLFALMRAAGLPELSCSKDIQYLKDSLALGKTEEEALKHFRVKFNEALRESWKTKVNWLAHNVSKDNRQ
Sequence of PI3Kδ (P27986 whole entry partner): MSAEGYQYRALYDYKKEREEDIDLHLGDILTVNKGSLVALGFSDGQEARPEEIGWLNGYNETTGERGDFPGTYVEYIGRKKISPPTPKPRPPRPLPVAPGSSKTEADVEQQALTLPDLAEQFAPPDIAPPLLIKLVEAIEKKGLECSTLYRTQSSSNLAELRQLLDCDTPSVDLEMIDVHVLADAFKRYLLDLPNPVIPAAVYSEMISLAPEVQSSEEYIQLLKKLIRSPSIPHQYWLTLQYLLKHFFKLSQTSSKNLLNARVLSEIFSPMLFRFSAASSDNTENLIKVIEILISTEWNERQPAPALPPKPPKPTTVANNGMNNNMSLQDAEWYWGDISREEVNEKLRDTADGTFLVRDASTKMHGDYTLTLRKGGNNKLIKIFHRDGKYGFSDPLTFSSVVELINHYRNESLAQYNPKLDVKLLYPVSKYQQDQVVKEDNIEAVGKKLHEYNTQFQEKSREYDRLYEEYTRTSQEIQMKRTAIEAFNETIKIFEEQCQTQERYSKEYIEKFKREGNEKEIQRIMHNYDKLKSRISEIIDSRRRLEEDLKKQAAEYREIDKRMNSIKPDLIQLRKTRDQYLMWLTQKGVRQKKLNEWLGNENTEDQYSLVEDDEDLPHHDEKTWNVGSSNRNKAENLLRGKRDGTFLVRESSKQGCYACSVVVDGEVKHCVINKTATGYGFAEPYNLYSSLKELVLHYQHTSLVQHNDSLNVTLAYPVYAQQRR
Source text: as §1, §2, §3

[3] = molecular target: PI3Kγ (Homo sapiens, UniProt P48736); assay: Fluorescent determination of PI3Kinase enzyme activity (HTRF), PI3Kγ; format: biochemical; settings: for inhibition at 0.1 µM: 100 nM (underlined values: 300 nM)
Sequence of PI3Kγ (P48736 whole entry): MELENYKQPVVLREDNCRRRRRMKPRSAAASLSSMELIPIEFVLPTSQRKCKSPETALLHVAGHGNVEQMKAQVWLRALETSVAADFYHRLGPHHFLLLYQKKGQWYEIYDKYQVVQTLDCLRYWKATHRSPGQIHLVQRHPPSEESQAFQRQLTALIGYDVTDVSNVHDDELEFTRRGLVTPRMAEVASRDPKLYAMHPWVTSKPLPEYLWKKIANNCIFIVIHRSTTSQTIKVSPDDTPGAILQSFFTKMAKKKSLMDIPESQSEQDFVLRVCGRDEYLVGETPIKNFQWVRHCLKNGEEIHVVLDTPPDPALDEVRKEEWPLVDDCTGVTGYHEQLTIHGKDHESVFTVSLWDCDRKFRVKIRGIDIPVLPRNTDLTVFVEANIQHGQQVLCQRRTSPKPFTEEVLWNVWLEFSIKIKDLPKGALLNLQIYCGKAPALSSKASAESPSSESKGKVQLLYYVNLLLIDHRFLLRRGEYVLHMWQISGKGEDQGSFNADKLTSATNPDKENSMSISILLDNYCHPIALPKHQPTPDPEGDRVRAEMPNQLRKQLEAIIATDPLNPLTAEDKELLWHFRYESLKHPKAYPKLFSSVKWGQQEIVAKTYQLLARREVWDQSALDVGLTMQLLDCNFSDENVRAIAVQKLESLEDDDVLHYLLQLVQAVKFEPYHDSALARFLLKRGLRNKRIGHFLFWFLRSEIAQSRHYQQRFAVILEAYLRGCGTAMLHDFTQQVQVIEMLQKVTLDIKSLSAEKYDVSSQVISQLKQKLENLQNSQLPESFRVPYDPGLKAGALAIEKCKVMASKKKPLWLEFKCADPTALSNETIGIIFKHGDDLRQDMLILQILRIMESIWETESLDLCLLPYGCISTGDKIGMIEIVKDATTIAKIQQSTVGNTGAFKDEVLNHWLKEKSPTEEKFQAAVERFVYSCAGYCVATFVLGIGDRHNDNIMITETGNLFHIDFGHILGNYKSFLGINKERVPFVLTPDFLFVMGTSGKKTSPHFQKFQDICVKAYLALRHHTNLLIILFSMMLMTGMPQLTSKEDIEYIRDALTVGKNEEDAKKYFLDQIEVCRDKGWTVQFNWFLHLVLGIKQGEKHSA
Source text: as §1, §2, §3

[4] = molecular target: PI3Kβ (Homo sapiens, UniProt P42338); assay: Fluorescent determination of PI3Kinase enzyme activity (HTRF), PI3Kβ; format: biochemical
Sequence of PI3Kβ (P42338 whole entry): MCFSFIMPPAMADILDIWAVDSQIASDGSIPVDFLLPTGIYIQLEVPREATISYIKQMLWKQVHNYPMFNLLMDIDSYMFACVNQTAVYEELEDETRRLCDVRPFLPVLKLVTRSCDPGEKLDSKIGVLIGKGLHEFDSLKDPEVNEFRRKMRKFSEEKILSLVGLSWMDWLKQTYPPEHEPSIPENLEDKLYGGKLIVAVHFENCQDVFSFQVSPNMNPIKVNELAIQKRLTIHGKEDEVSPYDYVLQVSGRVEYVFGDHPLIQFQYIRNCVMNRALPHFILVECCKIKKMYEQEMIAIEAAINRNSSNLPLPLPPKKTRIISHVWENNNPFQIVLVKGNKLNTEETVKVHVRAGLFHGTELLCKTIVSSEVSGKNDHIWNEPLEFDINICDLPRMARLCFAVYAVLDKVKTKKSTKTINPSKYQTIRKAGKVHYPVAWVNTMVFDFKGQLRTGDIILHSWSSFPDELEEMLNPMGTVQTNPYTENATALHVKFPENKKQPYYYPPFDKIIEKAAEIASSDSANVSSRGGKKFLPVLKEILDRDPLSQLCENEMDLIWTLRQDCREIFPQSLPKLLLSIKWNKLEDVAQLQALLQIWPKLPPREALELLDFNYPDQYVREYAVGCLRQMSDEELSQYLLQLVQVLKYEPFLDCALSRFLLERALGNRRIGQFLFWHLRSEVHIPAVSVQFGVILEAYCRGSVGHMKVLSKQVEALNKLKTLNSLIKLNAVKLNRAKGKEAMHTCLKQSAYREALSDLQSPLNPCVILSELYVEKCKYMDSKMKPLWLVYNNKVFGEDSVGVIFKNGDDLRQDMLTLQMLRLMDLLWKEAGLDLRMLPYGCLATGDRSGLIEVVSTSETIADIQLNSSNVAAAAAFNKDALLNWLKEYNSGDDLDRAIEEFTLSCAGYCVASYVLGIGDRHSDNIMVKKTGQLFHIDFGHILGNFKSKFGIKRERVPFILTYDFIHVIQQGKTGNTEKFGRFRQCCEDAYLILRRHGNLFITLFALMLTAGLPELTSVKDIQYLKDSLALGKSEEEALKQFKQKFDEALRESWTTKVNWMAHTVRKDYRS
Sequence of PI3Kβ (P27986 whole entry partner): as the sequence (P27986 whole entry partner) above
Source text: as §1, §2, §3

Sequence of PI3Kα (P42336 whole entry): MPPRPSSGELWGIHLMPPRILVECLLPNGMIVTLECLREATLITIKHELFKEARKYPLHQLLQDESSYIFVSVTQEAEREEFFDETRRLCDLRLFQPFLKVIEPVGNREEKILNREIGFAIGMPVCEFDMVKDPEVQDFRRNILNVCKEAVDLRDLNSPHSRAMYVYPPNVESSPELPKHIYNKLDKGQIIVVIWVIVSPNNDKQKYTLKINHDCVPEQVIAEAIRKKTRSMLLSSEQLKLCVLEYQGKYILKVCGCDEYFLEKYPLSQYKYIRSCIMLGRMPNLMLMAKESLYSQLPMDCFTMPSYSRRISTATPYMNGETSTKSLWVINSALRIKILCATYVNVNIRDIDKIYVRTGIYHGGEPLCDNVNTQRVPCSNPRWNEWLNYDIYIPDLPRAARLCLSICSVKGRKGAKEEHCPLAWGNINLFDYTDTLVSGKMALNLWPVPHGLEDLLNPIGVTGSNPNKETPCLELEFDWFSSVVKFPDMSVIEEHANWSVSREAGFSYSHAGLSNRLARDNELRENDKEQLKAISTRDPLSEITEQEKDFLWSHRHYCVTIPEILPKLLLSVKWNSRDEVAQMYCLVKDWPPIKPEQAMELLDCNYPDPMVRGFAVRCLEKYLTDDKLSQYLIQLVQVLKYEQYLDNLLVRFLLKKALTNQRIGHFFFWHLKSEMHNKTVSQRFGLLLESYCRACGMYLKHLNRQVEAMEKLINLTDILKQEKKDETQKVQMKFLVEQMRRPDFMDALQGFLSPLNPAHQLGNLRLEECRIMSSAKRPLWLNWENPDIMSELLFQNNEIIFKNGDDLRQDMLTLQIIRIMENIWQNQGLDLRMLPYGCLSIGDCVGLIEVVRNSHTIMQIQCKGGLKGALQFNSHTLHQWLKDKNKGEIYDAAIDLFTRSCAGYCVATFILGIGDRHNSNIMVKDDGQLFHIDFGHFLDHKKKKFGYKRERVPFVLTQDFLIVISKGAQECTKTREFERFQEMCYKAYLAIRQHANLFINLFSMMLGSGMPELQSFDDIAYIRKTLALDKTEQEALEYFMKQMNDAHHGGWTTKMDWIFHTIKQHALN
Sequence of PI3Kα (P27986 whole entry partner): as the sequence (P27986 whole entry partner) above

An inhibition at 1 µM [1] of 0 to 10%, an IC50 [2] of 45.6 nM and an inhibition at 0.1 µM [2] of 80 to 100% were found for `C[C@H](c1cc2cccc(Cl)c2c(=O)n1-c1ccccc1)n1nc(-c2ccc(OC(F)F)c(F)c2)c2c(N)ncnc21` [Example 17b, (−)-3-(1-(4-amino-3-(4-(difluoromethoxy)-3-fluorophenyl)-1H-pyrazolo[3,4-d]pyrimidin-1-yl)ethyl)-8-chloro-2-phenylisoquinolin-1(2H)-one] in this work. It also gave a melting point of 181 to 185 °C, an IC50 [3] of 47.3 nM and an inhibition at 0.1 µM [3] of 80 to 100%. The inhibition at 1 µM [4] was 20 to 40%.
An inhibition at 1 µM [1] of 0 to 10%, an inhibition at 0.1 µM [2] of 40 to 60% and a melting point of 232 to 235 °C were found for `CC(C)Oc1ccc(-c2nn([C@H](C)c3cc4ccccc4c(=O)n3-c3ccccc3)c3ncnc(N)c23)cc1F` [Example 5b, (−)-3-(1-(4-amino-3-(3-fluoro-4-isopropoxyphenyl)-1H-pyrazolo[3,4-d]pyrimidin-1-yl)ethyl)-2-phenylisoquinolin-1(2H)-one] in this work. The inhibition at 0.1 µM [3] was 0 to 20% and the inhibition at 1 µM [4] was 60 to 80%.
An inhibition at 1 µM [1] of 0 to 10%, an inhibition at 0.1 µM [2] of 40 to 60% and a melting point of 212 to 214 °C were found for `CC(c1nc2cccc(F)c2c(=O)n1-c1ccccc1)n1nc(-c2ccc(O)c(F)c2)c2c(N)ncnc21` (stereo not shown) [Example 16, 2-(1-(4-amino-3-(3-fluoro-4-hydroxyphenyl)-1H-pyrazolo[3,4-d]pyrimidin-1-yl)ethyl)-5-fluoro-3-phenylquinazolin-4(3H)-one] in this work. It also gave an inhibition at 0.1 µM [3] of 40 to 60% and an inhibition at 1 µM [4] of 60 to 80%.
An inhibition at 1 µM [1] of 20 to 40%, an inhibition at 0.1 µM [2] of 60 to 80% and a melting point of 218 to 219 °C were found for `CC(c1cc2cccc(Cl)c2c(=O)n1-c1ccccc1)n1nc(-c2ccc(O)c(F)c2)c2c(N)ncnc21` (stereo not shown) [Example 14, 3-(1-(4-amino-3-(3-fluoro-4-hydroxyphenyl)-1H-pyrazolo[3,4-d]pyrimidin-1-yl)ethyl)-8-chloro-2-phenylisoquinolin-1(2H)-one] in this work. For the same compound, the inhibition at 0.1 µM [3] was 80 to 100% and the inhibition at 1 µM [4] was 60 to 80%.
An inhibition at 1 µM [1] of 0 to 10%, an inhibition at 0.1 µM [2] of 40 to 60% and a melting point of 228 to 229 °C were found for `CC(c1cc2cccc(F)c2c(=O)n1-c1ccccc1)n1nc(-c2ccc(O)c(F)c2)c2c(N)ncnc21` (stereo not shown) [Example 15, 3-(1-(4-amino-3-(3-fluoro-4-hydroxyphenyl)-1H-pyrazolo[3,4-d]pyrimidin-1-yl)ethyl)-8-fluoro-2-phenylisoquinolin-1(2H)-one] in this work. The inhibition at 0.1 µM [3] was 40 to 60% and the inhibition at 1 µM [4] was 20 to 40%.
An inhibition at 1 µM [1] of 0 to 10%, an inhibition at 0.1 µM [2] of 20 to 40% and a melting point of 164 to 166 °C were found for `CC(C)Oc1ccc(-c2nn(C(C)c3cc4cccc(Cl)c4c(=O)n3-c3ccccc3)c3ncnc(N)c23)cc1F` (stereo not shown) [Example 1, 3-(1-(4-amino-3-(3-fluoro-4-isopropoxyphenyl)-1H-pyrazolo[3,4-d]pyrimidin-1-yl)ethyl)-8-chloro-2-phenylisoquinolin-1(2H)-one] in this work. It also gave an inhibition at 0.1 µM [3] of 0 to 20% and an inhibition at 1 µM [4] of 0 to 10%.
An inhibition at 1 µM [1] of 20 to 40%, an inhibition at 0.1 µM [2] of 80 to 100% and a melting point of 289 to 291 °C were found for `Cc1n[nH]c2cc(-c3nn(C(C)c4cc5cccc(Cl)c5c(=O)n4-c4ccccc4)c4ncnc(N)c34)ccc12` (stereo not shown) [Example 21, 3-(1-(4-amino-3-(3-methyl-1H-indazol-6-yl)-1H-pyrazolo[3,4-d]pyrimidin-1-yl)ethyl)-8-chloro-2-phenylisoquinolin-1(2H)-one] in this work. The inhibition at 0.1 µM [3] was 60 to 80% and the inhibition at 1 µM [4] was 60 to 80%.
A melting point of 236 to 239 °C was found for `CC(C)Oc1ccc(-c2nn(C(C)c3nc4ccccc4c(=O)n3-c3ccccc3)c3ncnc(N)c23)cc1F` (stereo not shown) (as salt: potassium) [Example 6, 2-(1-(4-amino-3-(3-fluoro-4-isopropoxyphenyl)-1H-pyrazolo[3,4-d]pyrimidin-1-yl)ethyl)-3-phenylquinazolin-4(3H)-one] in this work.
An inhibition at 1 µM [1] of 0 to 10%, an inhibition at 0.1 µM [2] of 20 to 40% and a melting point of 192 to 195 °C were found for `CC(C)Oc1ccc(-c2nn([C@H](C)c3nc4ccccc4c(=O)n3-c3ccccc3)c3ncnc(N)c23)cc1F` [Example 6b, (−)-2-(1-(4-amino-3-(3-fluoro-4-isopropoxyphenyl)-1H-pyrazolo[3,4-d]pyrimidin-1-yl)ethyl)-3-phenylquinazolin-4(3H)-one] in this work. For the same compound, the inhibition at 0.1 µM [3] was 0 to 20% and the inhibition at 1 µM [4] was 20 to 40%.
A melting point of 261 to 263 °C was found for `CCC(c1nc2ccccc2c(=O)n1-c1ccccc1)n1nc(-c2ccc(OC(C)C)c(F)c2)c2c(N)ncnc21` (stereo not shown) [Example 22, 2-{1-[4-Amino-3-(3-fluoro-4-isopropoxy-phenyl)-pyrazolo[3,4-d]pyrimidin-1-yl]-propyl}-3-phenyl-3H-quinazolin-4-one] in this work.
An inhibition at 1 µM [1] of 0 to 10%, an inhibition at 0.1 µM [2] of 60 to 80% and a melting point of 215 to 219 °C were found for `C[C@H](c1cc2cccc(Cl)c2c(=O)n1-c1ccccc1)n1nc(-c2ccc(O)c(F)c2)c2c(N)ncnc21` [Example 14b, (−)-3-(1-(4-amino-3-(3-fluoro-4-hydroxyphenyl)-1H-pyrazolo[3,4-d]pyrimidin-1-yl)ethyl)-8-chloro-2-phenylisoquinolin-1(2H)-one] in this work. The inhibition at 0.1 µM [3] was 20 to 40% and the inhibition at 1 µM [4] was 20 to 40%.
A melting point of 215 to 218 °C was found for `CC(C)Oc1ccc(-c2nn(C(C)c3nc4ccc(F)cc4c(=O)n3-c3ccccc3)c3ncnc(N)c23)cc1F` (stereo not shown) (as salt: potassium) [Example 4, 2-(1-(4-amino-3-(3-fluoro-4-isopropoxyphenyl)-1H-pyrazolo[3,4-d]pyrimidin-1-yl)ethyl)-6-fluoro-3-phenylquinazolin-4(3H)-one] in this work.
An inhibition at 1 µM [1] of 0 to 10%, an inhibition at 0.1 µM [2] of 20 to 40% and a melting point of 258 to 260 °C were found for `C[C@H](c1cc2cccc(F)c2c(=O)n1-c1ccccc1)n1nc(-c2ccc(O)c(F)c2)c2c(N)ncnc21` [Example 15b, (−)-3-(1-(4-amino-3-(3-fluoro-4-hydroxyphenyl)-1H-pyrazolo[3,4-d]pyrimidin-1-yl)ethyl)-8-fluoro-2-phenylisoquinolin-1(2H)-one] in this work. The inhibition at 0.1 µM [3] was 0 to 20% and the inhibition at 1 µM [4] was 0 to 10%.
An inhibition at 1 µM [1] of 20 to 40%, an inhibition at 0.1 µM [2] of 40 to 60% and a melting point of 260 to 263 °C were found for `COc1ccc(-c2nn(C(C)c3cc4ccccc4c(=O)n3-c3ccccc3)c3ncnc(N)c23)cc1NS(C)(=O)=O` (stereo not shown) [Example 9, N-(5-(4-amino-1-(1-(1-oxo-2-phenyl-1,2-dihydroisoquinolin-3-yl)ethyl)-1H-pyrazolo[3,4-d]pyrimidin-3-yl)-2-methoxyphenyl)methanesulfonamide] in this work. It also gave an inhibition at 0.1 µM [3] of 20 to 40% and an inhibition at 1 µM [4] of 40 to 60%.
An inhibition at 1 µM [1] of 0 to 10%, an inhibition at 0.1 µM [2] of 20 to 40% and a melting point of 180 to 183 °C were found for `COc1ccc(-c2nn([C@H](C)c3cc4cccc(Cl)c4c(=O)n3-c3ccccc3)c3ncnc(N)c23)cc1NS(C)(=O)=O` [Example 20b, (−)—N-(5-(4-amino-1-(1-(8-chloro-1-oxo-2-phenyl-1,2-dihydroisoquinolin-3-yl)ethyl)-1H-pyrazolo[3,4-d]pyrimidin-3-yl)-2-methoxyphenyl)methanesulfonamide] in this work. For the same compound, the inhibition at 0.1 µM [3] was 0 to 20% and the inhibition at 1 µM [4] was 20 to 40%.
A melting point of 160 to 162 °C was found for `CC(c1cc2cccc(Cl)c2c(=O)n1-c1ccccc1)n1nc(-c2ccc(OC(F)F)c(F)c2)c2c(N)ncnc21` (stereo not shown) (as salt: potassium) [Example 17, 3-(1-(4-amino-3-(4-(difluoromethoxy)-3-fluorophenyl)-1H-pyrazolo[3,4-d]pyrimidin-1-yl)ethyl)-8-chloro-2-phenylisoquinolin-1(2H)-one] in this work.
An inhibition at 1 µM [1] of 0 to 10%, an inhibition at 0.1 µM [2] of 40 to 60% and a melting point of 158 to 162 °C were found for `COc1ccc(-c2nn([C@H](C)c3cc4ccccc4c(=O)n3-c3ccccc3)c3ncnc(N)c23)cc1NS(C)(=O)=O` [Example 9b, (−)—N-(5-(4-amino-1-(1-(1-oxo-2-phenyl-1,2-dihydroisoquinolin-3-yl)ethyl)-1H-pyrazolo[3,4-d]pyrimidin-3-yl)-2-methoxyphenyl)methanesulfonamide] in this work. It also gave an inhibition at 0.1 µM [3] of 0 to 20% and an inhibition at 1 µM [4] of 10 to 20%.
An inhibition at 1 µM [1] of 0 to 10%, an inhibition at 0.1 µM [2] of 80 to 100% and an inhibition at 0.1 µM [3] of 40 to 60% were found for `CC(C)Oc1ccc(-c2nn(C(C)c3nc4ccccc4c(=O)n3-c3ccccc3)c3ncnc(N)c23)cc1F` (stereo not shown) [Example 6, 2-(1-(4-amino-3-(3-fluoro-4-isopropoxyphenyl)-1H-pyrazolo[3,4-d]pyrimidin-1-yl)ethyl)-3-phenylquinazolin-4(3H)-one] in this work. It also gave an inhibition at 1 µM [4] of 0 to 10%.
A melting point of 264 to 266 °C was found for `CC(C)Oc1ccc(-c2nn(C(C)c3cc4cccc(F)c4c(=O)n3-c3ccccc3)c3ncnc(N)c23)cc1F` (stereo not shown) (as salt: potassium) [Example 2, 3-(1-(4-amino-3-(3-fluoro-4-isopropoxyphenyl)-1H-pyrazolo[3,4-d]pyrimidin-1-yl)ethyl)-8-fluoro-2-phenylisoquinolin-1(2H)-one] in this work.

From patent US11352359B2, “PI3K protein kinase inhibitors” (Rhizen Pharmaceuticals SA, priority 2013, dated 2022)
